Reference: publication PMC5053523, “In Vitro Antibacterial Activity of Rhodanine Derivatives against Pathogenic Clinical Isolates” (PLoS ONE, 2016)
Read-outs that look alike come from different tables or passages of the source.

Experiments:
[1] = system: MRSA USA300; test: MIC against MRSA USA300 with and without 4% human serum albumin; format: cell-based, Staphylococcus aureus; details: for antibacterial activity in the presence or absence of HSA: MRSA USA300; for MIC: Staphylococcus aureus, read-out: MIC against MRSA USA300
Description: The minimum inhibitory concentration (MIC) and the minimum bactericidal concentration (MBC) of rhodanine compounds 1 to 7 were determined against various Gram-positive and Gram-negative pathogens (S1 Table) following the guidelines of the Clinical and Laboratory Standards Institute (CLSI)[4]. The broth microdilution technique was used, followed by subculturing on agar plates that were rhodanine—free. […] The MICs reported represent the lowest concentration of each compound necessary to inhibit bacterial growth and the MBCs represent the lowest concentration required to reduce the initial bacterial inoculum by ≥ 99.9%.
The antimicrobial activity of rhodanine compounds in the presence of 4% human serum albumin (HSA) was tested against MRSA USA300. The MICs of rhodanine compounds and control antibiotics (vancomycin and daptomycin) were tested as described in the methods above using tryptic soy broth spiked with 4% HSA. We also synthesized and tested three more compounds, ethyl ester and amide of rhodanine 2 (Rh 8 and Rh 10, respectively) and ethyl ester of rhodanine 3 (Rh 9) to determine the influence of a carboxyl group modification toward anti-MRSA activity and human serum albumin (HSA) binding.

[2] = system: Escherichia coli O157:H7; test: MIC with/without sub-MIC colistin, Escherichia coli O157:H7; format: cell-based
Description: (§1) The MIC of the rhodanines and control antibiotics, in the presence of a sub-inhibitory concentration of colistin or polymixin B nonapeptide (PMBN), against Gram-negative bacteria was evaluated as described before. The antibacterial activity of the rhodanines was further investigated against E. coli SM1411Δ acrAB, a strain that is deficient in the multidrug-resistant AcrAB efflux pump, as described before.

[3] = system: Klebsiella pneumoniae; test: MIC with/without sub-MIC colistin, Klebsiella pneumoniae; format: cell-based; details: Klebsiella pneumoniae ATCC BAA 2146
Description: as §1

[4] = system: Pseudomonas aeruginosa; test: MIC with/without sub-MIC colistin, Pseudomonas aeruginosa; format: cell-based; details: Pseudomonas aeruginosa, ATCC921
Description: as §1

[5] = system: Acinetobacter baumannii; test: MIC with/without sub-MIC colistin, Acinetobacter baumannii; format: cell-based
Description: as §1

[6] = system: Salmonella Typhimurium; test: MIC with/without sub-MIC colistin, Salmonella Typhimurium; format: cell-based; details: Salmonella Typhimurium ATCC 700720
Description: as §1

[7] = system: Escherichia coli O157:H7; test: MIC with/without PMBN, Escherichia coli O157:H7; format: cell-based
Description: as §1

[8] = system: Acinetobacter baumannii; test: MIC with/without PMBN, Acinetobacter baumannii; format: cell-based
Description: as §1

[9] = system: Klebsiella pneumoniae; test: MIC with/without PMBN, Klebsiella pneumoniae; format: cell-based
Description: as §1

[10] = system: Pseudomonas aeruginosa; test: MIC with/without PMBN, Pseudomonas aeruginosa; format: cell-based; details: Pseudomonas aeruginosa, ATCC9721
Description: as §1

[11] = Escherichia coli O157:H7 ATCC 35150
[12] = Escherichia coli O157:H7 ATCC 700728
[13] = Acinetobacter baumannii ATCC BAA747
[14] = Acinetobacter baumannii ATCC BAA19606

In the case of `CCOC(=O)[C@H](Cc1ccccc1)N1C(=O)/C(=C/c2cccc(-c3ccc(Cl)c(Cl)c3)c2)SC1=S` [Rh 8, Ethyl (L,Z)-2-(5-((3',4'-dichloro-[1,1'-biphenyl]-3-yl)methylene)-4-oxo-2-thioxothiazolidin-3-yl)-3-phenylpropanoate], the “antibacterial activity in the presence or absence of HSA” value (from here on “antibacterial activity”) [1] is reported as “not active”, the MIC ([1]; 24 h, Media TSB + 4% HSA) is reported as > 64 µM and the MIC ([1]; Media TSB) is reported as > 64 µM.
`CCOC(=O)[C@H](Cc1ccccc1)N1C(=O)/C(=C/c2cccc(Cc3ccc(Cl)c(Cl)c3)c2)SC1=S` [Rh 9, Ethyl (L,Z)-2-(5-(3-(3,4-dichlorobenzyl)benzylidene)-4-oxo-2-thioxothiazolidin-3-yl)-3-phenylpropanoate] was tested, and the “antibacterial activity” value [1] was “not active”, the MIC ([1]; 24 h, Media TSB + 4% HSA) was > 64 µM and the MIC ([1]; Media TSB) was > 64 µM.
For `NC(=O)[C@H](Cc1ccccc1)N1C(=O)/C(=C/c2cccc(-c3ccc(Cl)c(Cl)c3)c2)SC1=S` [Rh 10, (L,Z)-2-(5-((3',4'-dichloro-[1,1'-biphenyl]-3-yl)methylene)-4-oxo-2-thioxothiazolidin-3-yl)-3-phenylpropanamide], the “antibacterial activity” value [1] was “not active”, the MIC ([1]; 24 h, Media TSB + 4% HSA) was > 64 µM and the MIC ([1]; Media TSB) was > 64 µM.
colistin [reference compound] showed an MIC of colistin [2, 11] of 0.125 mg/L, an MIC of colistin [2, 12] of 0.0625 mg/L and an MIC of colistin [3] of 0.5 mg/L. The MIC of colistin [4] was 1 mg/L, the MIC of colistin [5, 13] was 0.25 mg/L and the MIC of colistin [5, 14] was 0.5 mg/L. For the same compound, the MIC of colistin [6] was 1 mg/L.
For “polymixin B nonapeptide [PMBN, reference compound]”, the “MIC of PMBN” value [7, 11] was >128 mg/L, the “MIC of PMBN” value [7, 12] was >128 mg/L and the “MIC of PMBN” value [8, 13] was >128 mg/L. The “MIC of PMBN” value [8, 14] was >128 mg/L, the “MIC of PMBN” value ([9]; Klebsiella pneumoniae ATCC BAA 1706) was >128 mg/L and the “MIC of PMBN” value ([9]; Klebsiella pneumoniae ATCC BAA 2146) was >128 mg/L. For the same compound, the “MIC of PMBN” value [10] was >128 mg/L.
